From US8334259B2, “Method of treating endothelial dysfunction comprising administration of a thrombin peptide derivative” (The Board of Regents, The University of Texas System, priority 2006, dated 2012)

Key:
AC-23 = assay: Binding of biotin-conjugated thrombin to complementary peptide AC-23
Source text: Addition of TP508 inhibited specific binding of biotin-labeled thrombin to AC-23. Up to 60% of the binding of thrombin to AC-23 can be inhibited by the addition of TP508. Therefore, both thrombin and TP508 bind to the complementary peptide, AC-23. […] Antibodies to AC-23 and other complementary peptides of thrombin can therefore be used to characterize the thrombin binding site that is activated by TP508, and can be used in the therapeutic and other methods described herein.

23C53 = assay: Binding of biotin-conjugated thrombin to complementary peptide 23C53
[1] = test system: Human coronary artery endothelial (HCAE) cells; assay: Endothelial cell invasion assay through Matrigel toward human VEGF; format: cell-based; settings: cells not pretreated, VEGF 10 ng/ml, normoxic or hypoxic
Method: Invasion of endothelial cells through a Matrigel matrix is one of many assays used to determine the angiogenic potential of test substances and is thought to be more predictive of angiogenesis in vivo than a simple chemotactic assay through open membrane pores since the cells must degrade and invade the matrix to move into and through the pores in the membrane. […] Human coronary artery endothelial (HCAE) cells (Lonza Walkersville, Inc., Walkersville, Md.) were cultured in the absence (control) or presence of TP508 [50 μg/ml] (TP pret) for 24 hours. Endothelial cell invasion assays were performed using BD BioCoat™ Angiogenesis System (BD Bioscience, Bedford, Mass.) which utilizes FluoroBlok inserts coated with BD Matrigel Matrix (BD Bioscience, Bedford, Mass.). Control or TP508 pretreated cells were added into the top of the inserts. […] After 22 hours of incubation, cells were labeled post-invasion with Calcein AM and measured by detecting the fluorescence of the cells that migrated to the underside of insert membrane.

[2] = test system: HLME (Human Lung Microvascular Endothelial Cells); assay: Survival of serum-deprived HLME cells; format: cell-based
VEGF mRNA = assay: Real-time PCR of VEGF mRNA in HCMVE cells; format: cell-based, human; settings: VEGF 10 ng/ml, 24 h
Source text: Real-time PCR analyses show changes in steady-state levels of VEGF mRNA after treatment. Data from one experiment performed in triplicate are shown in FIG. 11 as mean±SD. *p<0.01 compared to control (C) cells in normoxia. ^#p<0.01 compared to control (C) cells in hypoxia.

[3] = test system: Human coronary artery endothelial (HCAE) cells; assay: Transmembrane cell migration assay toward human VEGF (BD FluoroBlok inserts); format: cell-based; settings: VEGF 10 ng/ml, hypoxic, 22 h
Method: The ability of a test substance to attract endothelial cells and stimulate their migration through pores in the membrane is one of several tests to determine the angiogenic potential of test substances. […] Prior to migration assay, cells were cultured with or without TP508 to determine the effect of TP508 on endothelial migration. Human coronary artery endothelial (HCAE) cells (Lonza Walkersville, Inc., Walkersville, Md.) were cultured in the absence (control) or presence of TP508 [50 μg/ml] (“TP pret” in FIG. 9A and FIG. 9B) for 24 hours. Transmembrane cell migration assays were performed using BD FluoroBlok inserts (BD Bioscience, Bedford, Mass.) as described by the vendor. Control or TP508 pretreated cells were added into the top of the inserts. […] (V) or medium alone (C) was added to the lower chamber of the insert plate as a chemoattractant. Endothelial migration was performed in normoxic or 1% hypoxic conditions. After a 22-hour incubation, cells were labeled post-migration with Calcein AM and measured by detecting the fluorescence of the cells that migrated to the underside of the insert membrane.

eNOS [4] = assay: Human VEGF-induced eNOS activation (phosphorylation at S1177) in HCAE cells, Western blot; format: cell-based
Method: Human VEGF-induced eNOS activation was determined by Western blotting using an antibody recognizing the activated form of eNOS (phosphorylated at […]) (Cell Signaling, Danvers, Mass.). The membrane was re-probed with anti-GAPDH (glyceraldehyde-3-phosphate dehydrogenase) antibody to show equal protein loading. A bar graph representing densitometric analysis of the activated eNOS Western blot after different treatments is shown in FIG. 8.

ARG1 = ARG1 expression in HAE cells treated with TNFα; format: cell-based, human
Source text: Under normoxic conditions, TP508 increased phosphorylated eNOS (p-eNOS) and eNOS in cells with and without TNFα/hypoxic treatment.

eNOS [5] = assay: Western blot of eNOS expression and phosphorylation (S1177) in HCAE cells; format: cell-based, human; settings: 24 h
Method: (§1) Human coronary artery endothelial cells (HCAE cells, Cambrex Bio Science Walkersville, Walkersville, Md.) were cultured in 5% CO2 at 37° C. in endothelial cell growth medium (EGM) supplemented with 2% fetal bovine serum and Single Quot supplements (Clonetics, San Diego, Calif.; containing epidermal growth factor, hydrocortisone, vascular endothelial growth factor, fibroblast growth factor, insulin growth factor, ascorbic acid, heparin, gentamycin, and amphotericin B). Cells were used between passages 4 and 6 for these studies. HCAE cells were plated at a density of 50,000 cells per well in 12-well plates and were grown for 3 days to reach confluency. Two-day post-confluent cells were treated with TNFα or TP508. Cells were then incubated in normoxic or 1% hypoxic conditions for the indicated times. In some experiments, cells were pretreated with TP508 for 1 h before TNFα stimulation. For RNA extraction, HCAE cells were cultured in 6-well plates.
The cell lysates were subjected to SDS-PAGE in a 10% polyacrylamide gel and transferred to a nitrocellulose membrane (0.2-μm, Invitrogen). After blocking with 5% milk, the membrane was incubated overnight at 4° C. with primary antibodies against phospho-eNOS (Ser 1177) and eNOS (Cell Signaling Technology, Beverly, Mass.), human type-1 arginase (clone 9C5) (Cell Sciences, Canton, Mass.), or GAPDH (Santa Cruz Biotechnology, Santa Cruz, Calif.). […]

eNOS mRNA [6] = assay: SYBR Green real-time PCR of eNOS mRNA in HCAE cells; format: cell-based, human; settings: 24 h
Method: as §1
Real time quantitative PCR was used to determine relative expression of eNOS mRNA in endothelial cells treated with TP508 or TNF. […] Quantitative PCR amplifications were done using 2 μl of cDNA in a total volume of 25 μl using SYBR green probes in the SYBR Green PCR Master Mix (ABI). […] The reverse-transcribed cDNA sample cycle threshold values were determined from triplicate samples and normalized to the 18S “housekeeping” gene.

eNOS mRNA [7] = assay: RT-PCR of eNOS mRNA in HCAE cells; format: cell-based, human; settings: 6 h, 25 or 30 cycles
Method: as §1
Total RNA was isolated using an Ambion isolation kit as described by the manufacturer.
RT-PCR for eNOS was performed by Ready-to-Go RT-PCR Beads (Amersham Biosciences) using a two-step protocol. First, cDNA synthesis was achieved by incubating 1 μg total RNA with 1 μg random hexamers (pdN6) as primers and M.-MuLV reverse transcriptase at 42° C. for 60 min. […]

arginase 1 (ARG1) = assay: Western blot of arginase 1 expression in HCAE cells with or without TNFα; format: cell-based, human; settings: TNFα 24 h, normoxic
Method: Human coronary artery endothelial cells (HCAE cells, Cambrex Bio Science Walkersville, Walkersville, Md.) were cultured in 5% CO2 at 37° C. in endothelial cell growth medium (EGM) supplemented with 2% fetal bovine serum and Single Quot supplements (Clonetics, San Diego, Calif.; containing epidermal growth factor, hydrocortisone, vascular endothelial growth factor, fibroblast growth factor, insulin growth factor, ascorbic acid, heparin, gentamycin, and amphotericin B). Cells were used between passages 4 and 6 for these studies. HCAE cells were plated at a density of 50,000 cells per well in 12-well plates and were grown for 3 days to reach confluency. […] Cells were then incubated in normoxic or 1% hypoxic conditions for the indicated times.
The cell lysates were subjected to SDS-PAGE in a 10% polyacrylamide gel and transferred to a nitrocellulose membrane (0.2-μm, Invitrogen). After blocking with 5% milk, the membrane was incubated overnight at 4° C. with primary antibodies against phospho-eNOS (Ser 1177) and eNOS (Cell Signaling Technology, Beverly, Mass.), human type-1 arginase (clone 9C5) (Cell Sciences, Canton, Mass.), or GAPDH (Santa Cruz Biotechnology, Santa Cruz, Calif.). HRP-conjugated anti-mouse or anti-rabbit antibodies (Cell Signaling Technology) were used as secondary antibodies (HRP, horseradish peroxidase). […]

Sequence of AC-23 (as listed by the source): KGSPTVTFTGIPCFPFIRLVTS
Sequence of 23C53 (as listed by the source): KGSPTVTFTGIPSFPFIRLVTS

thrombin
Specific binding of thrombin to AC23 (AC-23): bind specifically | Specific binding of thrombin to 23C53 (23C53): bind specifically

VEGF
Invasion of control endothelial cells through Matrigel toward human VEGF [1]: not stimulated | Cell survival [2]: increased survival at lower levels | VEGF mRNA in hypoxic cells (VEGF mRNA; 1% hypoxic): no effect, or decreased | Decrease of VEGF mRNA expression compared to control cells (VEGF mRNA; normoxic): 2 fold | Endothelial cell migration relative to media control cells [3]: ~150% | Decrease of VEGF-stimulated eNOS phosphorylation in hypoxic compared to normoxic cells (eNOS [4]; hypoxic (1% O2, 24 h) HCAE cells, 1 min VEGF): ~4 fold | VEGF-induced phosphorylation of eNOS on serine 1177, maximum (eNOS [4]; normoxic HCAE cells, VEGF 50 ng/ml, 1 minute): 2 fold

TNFα
Expression of ARG1 (ARG1): increasing expression | Reduction of eNOS expression relative to normoxic controls (eNOS [5]): 65% | Decrease of eNOS mRNA level (eNOS mRNA [6]): ~80% | eNOS mRNA expression (RT-PCR) (eNOS mRNA [7]): drastically decreased | ARG1 expression relative to control cultures (arginase 1 (ARG1)): significant increase
